Results: ChEMBL document CHEMBL3885861, “Open TG-GATES”

Organism: Rattus norvegicus
Assay: Open TG-GATES - Regimen: Daily Repeat
Type: toxicity, organism-based, Sprague-Dawley
Design: regimen Daily Repeat, gender Male, age 6 weeks
Conditions: in vivo, iv, route intravenous injection; for APTT / Bas / Eos / Fbg / Hb / Ht / Lym / MCH / MCHC / MCV / Mono / Neu / PT / Plat / RBC / Ret / WBC: tissue Blood; for KIDNEY_L / KIDNEY_R / KIDNEY_TOTAL: tissue Kidney; for LIVER: tissue Liver; for A/G / ALP / ALT / AST / BUN / CRE / Ca / Cl / DBIL / GLC / IP / K / LDH / Na / PL / RALB / TBIL / TC / TG / TP / gamma-GTP: tissue Plasma
[1] = 6 mg/kg, 72 h, dose level Middle, time 3 day
[2] = 6 mg/kg, […], dose level Middle, time 7 day
[3] = 6 mg/kg, […], dose level Middle, time 14 day
[4] = 6 mg/kg, […], dose level Middle, time 28 day
[5] = 20 mg/kg, 72 h, dose level High, time 3 day
[6] = 20 mg/kg, […], dose level High, time 7 day
[7] = 20 mg/kg, […], dose level High, time 14 day
[8] = 20 mg/kg, […], dose level High, time 28 day

## NCCBr [BROMOETHANAMINE]
[1]
  TERMINAL_BW: 227.7 g
  APTT: 22.4 s
  Bas: 0%
  Eos: 1%
  Fbg: 318.4 mg/dL
  Hb: 13.8 g/dL
  Ht: 40%
  Lym: 83.6%
  MCH: 21.2 pg
  MCHC: 34.4%
  MCV: 61.7 fL
  Mono: 2%
  Neu: 12.2%
  PT: 16.2 s
  Plat: 121.7 x10_4/uL
  RBC: 648 x10_4/ul
  Ret: 4.6%
  WBC: 75.6 x10_2/uL
  KIDNEY_L: 1 g
  KIDNEY_R: 1 g
  KIDNEY_TOTAL: 2 g
  LIVER: 10.9 g
  A/G: 1.3
  ALP: 1767.4 IU/L
  ALT: 39.6 IU/L
  AST: 69 IU/L
  BUN: 15.6 mg/dL
  CRE: 0.2 mg/dL
  Ca: 10.9 mg/dL
  Cl: 106.6 meq/L
  DBIL: 0 mg/dL
  GLC: 169 mg/dL
  IP: 6.9 mg/dL
  K: 4.6 meq/L
  LDH: 209.6 IU/L
  Na: 142 meq/L
  PL: 138.8 mg/dL
  RALB: 3.1 g/dL
  TBIL: 0.006 mg/dL
  TC: 71 mg/dL
  TG: 113.8 mg/dL
  TP: 5.6 g/dL
  gamma-GTP: 1.4 IU/L
[2]
  TERMINAL_BW: 261 g
  APTT: 23.5 s
  Bas: 0%
  Eos: 1.4%
  Fbg: 282.6 mg/dL
  Hb: 13.9 g/dL
  Ht: 40.1%
  Lym: 83%
  MCH: 21.6 pg
  MCHC: 34.7%
  MCV: 62.2 fL
  Mono: 2.8%
  Neu: 11.8%
  PT: 15.8 s
  Plat: 123.4 x10_4/uL
  RBC: 645 x10_4/ul
  Ret: 3.9%
  WBC: 116 x10_2/uL
  KIDNEY_L: 1.1 g
  KIDNEY_R: 1.1 g
  KIDNEY_TOTAL: 2.1 g
  LIVER: 12.5 g
  A/G: 1.2
  ALP: 1617 IU/L
  ALT: 39.4 IU/L
  AST: 71.4 IU/L
  BUN: 17.6 mg/dL
  CRE: 0.2 mg/dL
  Ca: 10.8 mg/dL
  Cl: 107.4 meq/L
  DBIL: 0 mg/dL
  GLC: 182.2 mg/dL
  IP: 6.9 mg/dL
  K: 4.5 meq/L
  LDH: 204 IU/L
  Na: 141 meq/L
  PL: 140 mg/dL
  RALB: 3 g/dL
  TBIL: 0.002 mg/dL
  TC: 72.4 mg/dL
  TG: 119 mg/dL
  TP: 5.5 g/dL
  gamma-GTP: 1.2 IU/L
[3]
  TERMINAL_BW: 314.5 g
  APTT: 22.4 s
  Bas: 0%
  Eos: 1.2%
  Fbg: 327.4 mg/dL
  Hb: 13.8 g/dL
  Ht: 40.3%
  Lym: 85.2%
  MCH: 20.4 pg
  MCHC: 34.3%
  MCV: 59.5 fL
  Mono: 2%
  Neu: 10.6%
  PT: 15.5 s
  Plat: 132 x10_4/uL
  RBC: 676.6 x10_4/ul
  Ret: 3.8%
  WBC: 119.2 x10_2/uL
  KIDNEY_L: 1.3 g
  KIDNEY_R: 1.2 g
  KIDNEY_TOTAL: 2.5 g
  LIVER: 14.7 g
  A/G: 1.1
  ALP: 1499 IU/L
  ALT: 41 IU/L
  AST: 69 IU/L
  BUN: 18.2 mg/dL
  CRE: 0.2 mg/dL
  Ca: 10.8 mg/dL
  Cl: 107 meq/L
  DBIL: 0 mg/dL
  GLC: 170.2 mg/dL
  IP: 7.1 mg/dL
  K: 4.4 meq/L
  LDH: 142.6 IU/L
  Na: 143.2 meq/L
  PL: 145.8 mg/dL
  RALB: 3 g/dL
  TBIL: 0.004 mg/dL
  TC: 77.6 mg/dL
  TG: 98.2 mg/dL
  TP: 5.8 g/dL
  gamma-GTP: 2.8 IU/L
[4]
  TERMINAL_BW: 361.2 g
  APTT: 26 s
  Bas: 0%
  Eos: 1.4%
  Fbg: 312.2 mg/dL
  Hb: 15.8 g/dL
  Ht: 42.9%
  Lym: 84.2%
  MCH: 20.4 pg
  MCHC: 36.9%
  MCV: 55.4 fL
  Mono: 1.4%
  Neu: 12.2%
  PT: 16.4 s
  Plat: 110.1 x10_4/uL
  RBC: 775.2 x10_4/ul
  Ret: 2.2%
  WBC: 90.4 x10_2/uL
  KIDNEY_L: 1.3 g
  KIDNEY_R: 1.4 g
  KIDNEY_TOTAL: 2.7 g
  LIVER: 15.7 g
  A/G: 1.1
  ALP: 1273.6 IU/L
  ALT: 32.8 IU/L
  AST: 55 IU/L
  BUN: 18.2 mg/dL
  CRE: 0.2 mg/dL
  Ca: 10.5 mg/dL
  Cl: 106.4 meq/L
  DBIL: 0 mg/dL
  GLC: 185.8 mg/dL
  IP: 6.5 mg/dL
  K: 4.1 meq/L
  LDH: 118 IU/L
  Na: 145 meq/L
  PL: 131.8 mg/dL
  RALB: 3.2 g/dL
  TBIL: 0.004 mg/dL
  TC: 65.2 mg/dL
  TG: 112.2 mg/dL
  TP: 6.2 g/dL
  gamma-GTP: 2.6 IU/L
[5]
  TERMINAL_BW: 210.6 g
  APTT: 22.4 s
  Bas: 0%
  Eos: 1%
  Fbg: 351 mg/dL
  Hb: 13.7 g/dL
  Ht: 39.6%
  Lym: 83.4%
  MCH: 21.2 pg
  MCHC: 34.5%
  MCV: 61.3 fL
  Mono: 3%
  Neu: 11%
  PT: 16.3 s
  Plat: 130.9 x10_4/uL
  RBC: 646.2 x10_4/ul
  Ret: 2.4%
  WBC: 69.9 x10_2/uL
  KIDNEY_L: 1 g
  KIDNEY_R: 1 g
  KIDNEY_TOTAL: 2 g
  LIVER: 9.3 g
  A/G: 1.2
  ALP: 1285.8 IU/L
  ALT: 37 IU/L
  AST: 63.2 IU/L
  BUN: 16 mg/dL
  CRE: 0.2 mg/dL
  Ca: 10.6 mg/dL
  Cl: 109.2 meq/L
  DBIL: 0.004 mg/dL
  GLC: 160 mg/dL
  IP: 5.8 mg/dL
  K: 4.5 meq/L
  LDH: 206.4 IU/L
  Na: 141.6 meq/L
  PL: 140 mg/dL
  RALB: 3 g/dL
  TBIL: 0.014 mg/dL
  TC: 77.8 mg/dL
  TG: 53.4 mg/dL
  TP: 5.6 g/dL
  gamma-GTP: 1.4 IU/L
[6]
  TERMINAL_BW: 227.1 g
  APTT: 23 s
  Bas: 0%
  Eos: 0.8%
  Fbg: 332.6 mg/dL
  Hb: 14.1 g/dL
  Ht: 40.5%
  Lym: 86.8%
  MCH: 20.9 pg
  MCHC: 34.8%
  MCV: 59.9 fL
  Mono: 2.4%
  Neu: 8.6%
  PT: 15.9 s
  Plat: 140.5 x10_4/uL
  RBC: 676 x10_4/ul
  Ret: 1.6%
  WBC: 87 x10_2/uL
  KIDNEY_L: 1.1 g
  KIDNEY_R: 1.1 g
  KIDNEY_TOTAL: 2.2 g
  LIVER: 11.1 g
  A/G: 1.1
  ALP: 1454.4 IU/L
  ALT: 31.6 IU/L
  AST: 53.4 IU/L
  BUN: 15.6 mg/dL
  CRE: 0.2 mg/dL
  Ca: 10.7 mg/dL
  Cl: 109 meq/L
  DBIL: 0 mg/dL
  GLC: 174.2 mg/dL
  IP: 7 mg/dL
  K: 4.3 meq/L
  LDH: 176.6 IU/L
  Na: 141.2 meq/L
  PL: 147.4 mg/dL
  RALB: 3 g/dL
  TBIL: 0.006 mg/dL
  TC: 75.2 mg/dL
  TG: 98.6 mg/dL
  TP: 5.7 g/dL
  gamma-GTP: 1.6 IU/L
[7]
  TERMINAL_BW: 262.8 g
  APTT: 24.6 s
  Bas: 0%
  Eos: 0.2%
  Fbg: 332.6 mg/dL
  Hb: 14.1 g/dL
  Ht: 40.7%
  Lym: 87.4%
  MCH: 20.1 pg
  MCHC: 34.6%
  MCV: 58.1 fL
  Mono: 2%
  Neu: 9.2%
  PT: 15.6 s
  Plat: 134.2 x10_4/uL
  RBC: 700.8 x10_4/ul
  Ret: 2.7%
  WBC: 76.8 x10_2/uL
  KIDNEY_L: 1.2 g
  KIDNEY_R: 1.2 g
  KIDNEY_TOTAL: 2.4 g
  LIVER: 13.6 g
  A/G: 1.1
  ALP: 1344.2 IU/L
  ALT: 34.2 IU/L
  AST: 49.4 IU/L
  BUN: 19.2 mg/dL
  CRE: 0.1 mg/dL
  Ca: 10.8 mg/dL
  Cl: 110.2 meq/L
  DBIL: 0 mg/dL
  GLC: 170.4 mg/dL
  IP: 6.8 mg/dL
  K: 4.3 meq/L
  LDH: 135.6 IU/L
  Na: 144.4 meq/L
  PL: 143 mg/dL
  RALB: 3.1 g/dL
  TBIL: 0.012 mg/dL
  TC: 69.2 mg/dL
  TG: 93.6 mg/dL
  TP: 6 g/dL
  gamma-GTP: 2.6 IU/L
[8]
  TERMINAL_BW: 323 g
  APTT: 25.9 s
  Bas: 0%
  Eos: 1.4%
  Fbg: 333.4 mg/dL
  Hb: 14.8 g/dL
  Ht: 40.7%
  Lym: 79%
  MCH: 19.9 pg
  MCHC: 36.3%
  MCV: 54.8 fL
  Mono: 3%
  Neu: 15.6%
  PT: 16.1 s
  Plat: 120.7 x10_4/uL
  RBC: 744 x10_4/ul
  Ret: 3.3%
  WBC: 65.8 x10_2/uL
  KIDNEY_L: 1.4 g
  KIDNEY_R: 1.4 g
  KIDNEY_TOTAL: 2.8 g
  LIVER: 18.5 g
  A/G: 1
  ALP: 1076.6 IU/L
  ALT: 39 IU/L
  AST: 43 IU/L
  BUN: 20.2 mg/dL
  CRE: 0.1 mg/dL
  Ca: 10.7 mg/dL
  Cl: 106.2 meq/L
  DBIL: 0 mg/dL
  GLC: 178 mg/dL
  IP: 7 mg/dL
  K: 4.2 meq/L
  LDH: 118 IU/L
  Na: 144.2 meq/L
  PL: 170 mg/dL
  RALB: 3.4 g/dL
  TBIL: 0.042 mg/dL
  TC: 77.6 mg/dL
  TG: 143.6 mg/dL
  TP: 6.6 g/dL
  gamma-GTP: 4 IU/L
